We go through one molecule from article PMC10666548, “Identification of the bacterial metabolite aerugine as potential trigger of human dopaminergic neurodegeneration” (Environment international, 2023).

Usually EC50 stands for the midpoint of the concentration-response curve.

A short description of series [1]: Cytotoxicity to proliferating (d0) LUHMES cells, calcein-AM & H-33342 imaging. It counts as cell-based. The conditions noted are these: human, proliferating LUHMES d0, 24 h exposure, read-out: EC50 (half-maximal cytotoxic potency), cell viability. How it is done: LUHMES cells were cultivated as described previously ([Krug et al., 2013]; [Schildknecht et al., 2013]; [Scholz et al., 2011]). In brief, cells were grown in standard cell culture flasks pre-coated with 50 μg/ml PLO and 1 μg/ml fibronectin in water for at least 3 h at 37 °C. The maintenance culture was kept in proliferation medium consisting of advanced DMEM/F12 with 2 mM L-glutamine, 1x N2-supplement, and 40 ng/ml FGF-2. The cells were incubated at 37 °C with 5% CO2 and passaged trice a week when reaching 75–90% confluence. They were used up to passage 18. […]
Neurite area (NA) and viability (V) were assessed as described previously ([Stiegler et al., 2011]). […] Image acquisition was performed using an Array-Scan VTI HCS Reader (Cellomics, PA, USA) equipped with a Hamamatsu ORCA-ER camera. […]
Nuclei were identified in channel 1 depending on intensity, area, size and shape. […] The NA was automatically calculated by excluding the VCSAs from the VCSs. […]
Fig. 3. […] The cell viability was assessed 24 h later by calcein-AM & H-33342 staining and high content imaging. […] The overall cell viability was assessed by measuring resazurin reduction in technical triplicates. […] The cell viability was assessed 24 h later by calcein-AM & H-33342 staining and high content imaging. […]

In series [2] the test system is Neisseria gonorrhoeae MS11. The series can be described thus: Bacterial growth assay. It counts as cell-based. To be noted: 20 μM, log growth phase. The procedure:
Neisseria gonorrhoeae MS11 was cultured in PPM medium (15 g/l Proteose Pepton, 1 g/l soluble starch, 5 g/l NaCl, 4 g/l KH2PO4, 1 g/l K2HPO4, pH 7.5) for liquid culture and on GC plates (BD Difco™ GC Medium Base), both supplemented with 1 % vitamin mix (100 g/l glucose, 10 g/l glutamine, 26 g/l L-cysteine, 100 mg/l carboxylase, 250 mg/l NAD, 500 μl/l Fe(NO3)3, 150 mg/l arginine, 3 mg/l thiamine-HCl, 10 mg/l vitamine B12, 13 mg/l p-amino benzoic acid, 1.1 g/l L-cystine, 1 g/l adenine, 500 mg/l uracil, 30 mg/l guanine). Strains were either cultivated at 37 °C and 220 rpm (liquid medium) or at 37 °C and 5 % CO2 (solid medium).
Bacteria were grown as described above on solid medium. Prior to substance exposure, bacteria were pre-cultured in liquid medium for at least 2 h. Optical density was determined and a volume equal to an OD550 of 0.2 for Neisseria gonorrhoeae MS11 (equates a final OD550 of 0.04) and an OD600 of 0.2 for Enterococcus faecalis (equates a final OD600 of 0.04) was inoculated into 5 ml of the respective liquid medium. Compound was added at the indicated amounts. […] Samples were incubated for either 10.5 h, until they reached a stationary phase (three measured values in stationary phase) or until they reached an OD of 2.5. Optical density was determined every 0.5 h at OD550 for Neisseria gonorrhoeae MS11 and at OD600 for Enterococcus faecalis. […]

The test system of another series is 5HT2B receptor. Set-up: method as in Lin et al., 2017. The conditions noted are these: ref Lin et al., 2017; cited from earlier work.

As for `OCC1CSC(c2ccccc2O)=N1` (stereo not drawn) [aerugine, 2-[4-(hydroxymethyl)-4,5-dihydro-1,3-thiazol-2-yl]phenol], the EC50 at 24 h in series [1] was 13 ± 0.2 µM. In addition, the viability or growth entry in series [2] was “not affected in viability or growth”. Besides, the “displacement of radioactive lysergic acid diethylamide” value in the series with 5HT2B receptor is “displaced radioactive lysergic acid diethylamide at low μM concentrations”.
